# Reference: US20060084659A1, “Augmentation of psychotherapy with cannabinoid reuptake inhibitors” (priority 2004, published 2006)
# Columns and labels:
# [1] = test system: Adult male Sprague-Dawley rats; assay: Extinction of conditioned fear measured by fear-potentiated startle (FPS) after extinction training; format: in vivo, rat; settings: for fear potentiated startle (FPS) after extinction training: 10 mg/kg AM404, 5 mg/kg rimonabant, alone or together, 30 trial extinction, 24 hrs post extinction training; for fear (FPS) vs vehicle: 10 mg/kg i.p., 30-trial extinction; for extinction of fear (summary of Examples 1-10): systemic application in rats, fear-potentiated startle; for conditioned fear following extinction training vs vehicle: p<0.01
# Method: Animals: Adult male Sprague-Dawley rats (Charles River, Raleigh, N.C., 350-450 g) were used in the present studies. Animals were housed in pairs in a temperature-controlled animal colony, with ad libitum access to food and water, and maintained on a 12 hr light/dark cycle.
# (§1) Fear conditioning: All training and testing trials were performed in standardized chambers optimized for the measurement of fear-potentiated startle (see Walker et al. (2002) J. Neurosci. 22: 2343-2351). Animals were pre-exposed to the chambers for 10 min on each of 2 days prior to training for habituation purposes and to minimize the effects of contextual conditioning. On 2 consecutive days following habituation, rats were returned to the same chambers and presented with 10 pairings of a light (3.7 sec) co-terminating with a 0.4-mA, 0.5-sec shock (3.6-min inter-trial interval).
# (§2) Matching: Twenty-four hours following the last fear-conditioning session, animals were returned to the same chambers and presented with startle stimuli (50-msec, 95-dB white-noise bursts) in the presence or absence of the light conditioned stimulus (light-CS). Increased startle in the presence of the light-CS was taken as a measure of conditioned fear, and the magnitude of the fear response was calculated as the percentage by which startle increased when the light-CS was presented in compound with the startle stimulus versus when it was omitted (fear-potentiated startle or FPS). Using these measurements, animals were divided into groups displaying approximately equal levels of FPS prior to drug treatment and extinction training.
# Extinction training: Five days following the last fear conditioning trial, animals were injected intraperitoneally with a test compound or its vehicle in 1 mL/kg volumes and then immediately returned to the same chambers and presented with 15, 30 or 90 presentations of the light-CS in the absence of footshock (3.7-sec light, 30-sec inter-trial interval). One hour following extinction training, a subset of animals was given a short test consisting of startle stimuli in the presence or absence of the light-CS (2-5 light-startle compounds, values shown are averages of all trials). Twenty-four hrs post-extinction training, all animals were tested for the presence of fear-potentiated startle (15 light-startle compounds).
# Statistics: Comparisons were made across drug-treatment groups at each test (e.g. 24-hr groups were compared across treatment groups) using ANOVA or Student's t-test with drug or dose as the independent measure, and using Fischer's LSD test for post-hoc analysis.
# [2] = test system: Adult male Sprague-Dawley rats; assay: FPS in fear-conditioned animals without cue re-exposure; format: in vivo, rat; settings: 10 mg/kg AM404 or 5 mg/kg rimonabant; tested 1 hr following drug administration
# Method: as §1
# as §2, with “training. […]” for “training.”
# [3] = test system: Adult male Sprague-Dawley rats; assay: Shock reactivity, baseline startle and activity measures; format: in vivo, rat; settings: 10 mg/kg
# Method: Shock Reactivity, Startle, and Activity Measures: Animals that had been previously fear-conditioned were injected with AM404, placed in the training/testing chambers, and presented with 3 unpaired shocks and 42 startle stimuli (0.4-mA, 0.5-sec shocks, 95-dB noise-burst startle). The same group of animals was returned to the same chambers 3 d later, injected with vehicle, and presented with an identical behavioral test. The values shown are the mean integrated voltages of the accelerometers measured over 200-msec periods beginning at the onset of either the shocks or the startle stimuli. Additionally, a measure of spontaneous motor activity was derived from the mean displacement of the accelerometers in the 2 min prior to delivery of the first shock, while animals were exploring the chambers.
# This experiment examined behavioral effects engendered by AM404 treatment. These included the effect of 10 mg/kg AM404 on: 1) shock-reactivity as a measure of pain sensitivity; 2) baseline startle as one measure of anxiety; and 3) general motor activity within the training chambers. Animals were fear-conditioned and then returned to the training chamber several days later and administered 10 mg/kg AM404. Following drug administration, animals were presented with 3 shocks and 42 startle stimuli identical to those used in the above studies. Subsequently, the same animals were returned to the testing chamber 3 days later, injected with vehicle, and similarly tested.
# [4] = test system: Adult male Sprague-Dawley rats; assay: Shock-induced reinstatement of fear; format: in vivo, rat
# Method: Reinstatement: Animals that had been previously fear-conditioned and extinction-trained were returned to the testing chamber 48 hours and sometimes 96 hours following extinction training and presented with 3 footshocks in the absence of the light-CS (0.4 mA, 0.5 sec shock, 2 min inter-trial interval). Immediately following the unpaired shocks, animals were tested for the presence of fear-potentiated startle (15 light-startle compounds).
# Shock-induced reinstatement was examined 2 days following treatment with AM404 or vehicle during extinction. Previous studies have shown that the level of fear following reinstatement is dependent both on the level of the stressor and the amount of previous extinction, as long as the stressor is delivered in the same context as the original training context (Rescorla & Heth (1975). J. Exp. Psychol. Anim. Behav. Process. 1(1): 88-96; Bouton & King (1983) J. Exp. Psychol. Anim. Behav. Process. 9: 248-265). As animals were matched for equivalent FPS prior to extinction training, the susceptibility of animals to reinstatement can be taken as a secondary measure of the strength of extinction training, and perhaps as a preliminary measure of the resiliency of these inhibitory extinction memories to stressors. […]
# [5] = PD98059 systemic and intra-amygdala infusions; AP5 intra-amygdala infusions; cited from earlier work
# [6] = intra-amygdala infusions; fear-potentiated startle (AP5 also freezing); cited from earlier work
# [7] = cited from earlier work
# [8] = doses greater than 5 mg/kg; Herzberg et al. 1997; cited from earlier work
structure (smiles),measurement,setting,value
"CCCCC/C=C\C/C=C\C/C=C\C/C=C\CCCC(=O)Nc1ccc(O)cc1 [AM404, N-(4-hydroxyphenyl)arachidonamide]",fear potentiated startle (FPS) after extinction training,[1],significant extinction
same,fear (FPS) vs vehicle,"[1]; 1 hr post extinction, p<0.05",significantly less fear than vehicle-treated controls
same,fear (FPS) vs vehicle,"[1]; 24 hrs post-extinction, post-hoc p<0.05",significantly less than vehicle-treated animals
same,extinction retention (fear in the presence of the CS),"[1]; prior to 30-trial extinction training, 24 hrs following extinction training, main effect of drug p<0.05",enhancement of extinction retention
same,extinction of fear (summary of Examples 1-10),[1],dose-dependently enhances extinction of fear
same,FPS when cue re-exposure omitted,[2],no effect on FPS
same,shock reactivity (pain sensitivity),"[3]; 3 footshocks, p>0.5",little effect
same,baseline startle (anxiety),[3]; p=0.45,non-significant trend toward decreased baseline startle
same,overall locomotor activity levels in the testing chamber,[3]; p>0.5,little effect
same,reinstatement-induced conditioned fear,"[4]; 2 mg/kg and 10 mg/kg groups pooled, drug given prior to extinction training, 48 hrs prior to reinstatement with 3 footshocks, p<0.05",less reinstatement-induced conditioned fear
same,within-session extinction (change in FPS) after reinstatement,"[4]; first 4 trials of testing following reinstatement, Trial X Drug p<0.02",little change
NC(CCCP(=O)(O)O)C(=O)O (stereo not shown) [AP5],fear conditioning,[5],block fear conditioning
same,extinction,[6],block extinction
"N[C@@H]1CONC1=O [DCS, D-cycloserine]",half-life,[7]; in vivo,10 h
same,route of excretion,[7]; in vivo,primarily renally excreted
same,time of peak blood levels after dosing,[7]; in vivo,3 to 8 h
same,side effects,"[7]; infrequent, subjects on chronic dosing schedules, generally chronically ill with tuberculosis","drowsiness, headache, confusion, tremor, vertigo, and memory difficulties, paresthesias, and seizure"
COc1cccc(-c2cc(=O)c3ccccc3o2)c1N [PD98059],fear conditioning,[5],disrupt fear-conditioning
same,extinction,[6],disrupt extinction
"NC(=O)c1cccc(-c2cccc(OC(=O)NC3CCCCC3)c2)c1 [URB597, cyclohexylcarbamic acid 3′-carbamoylbiphenyl-3-yl ester]",reduction in fear within the testing session,"[1]; 15-trial extinction, relative to animals receiving no drug",greater reductions in fear within the testing session
same,average decrease in FPS relative to pre-extinction levels,"[1]; 15-trial extinction, testing sessions 48 and 96 hours after extinction training",approximately 30%
same,extinction retention (fear in the presence of the CS),"[1]; prior to 15-trial extinction training, 48 hrs following extinction training",enhancement of extinction retention
same,extinction of fear (summary of Examples 1-10),[1],dose-dependently enhances extinction of fear
"Cc1c(C(=O)c2cccc3ccccc23)c2cccc3c2n1[C@H](CN1CCOCC1)CO3 [WIN 55-212,2]",extinction retention (reduction in fear),[1]; 5 mg/kg single dose prior to 30-trial extinction training,did not augment the non-significant reduction in fear
same,locomotor and analgesic effects,[8],prominent locomotor and analgesic effects
Cc1c(C(=O)NN2CCCCC2)nn(-c2ccc(Cl)cc2Cl)c1-c1ccc(Cl)cc1 [rimonabant],conditioned fear following extinction training vs vehicle,"[1]; 1.5 mg/kg i.p., 90-trial extinction, 24 hrs post-extinction",significantly higher levels of conditioned fear than vehicle-treated controls
same,conditioned fear following extinction training vs vehicle,"[1]; 5 mg/kg i.p., 90-trial extinction, 24 hrs post-extinction",significantly higher levels of conditioned fear than vehicle-treated controls
same,fear potentiated startle (FPS) after extinction training,[1],no decrease in fear potentiated startle
same,extinction retention (fear in the presence of the light-CS),"[1]; 90-trial extinction, acute administration immediately prior to extinction training, tested 24 hrs following extinction training",profound disruption of extinction retention
same,extinction of fear (summary of Examples 1-10),[1],dose-dependently blocks extinction of fear
same,FPS when cue re-exposure omitted,[2],no effect on FPS
